Like-named read-outs stand apart in the source and are kept apart here. Square brackets hold non-standard residues; d marks the D form. Peptide text beside a SMILES is read from it. * marks the point of attachment. Nle = CCCC[C@H](N)C(=O)O; CH2Cl = ClC*
Tested on: Raf-1^gof intestinal tumors
Details: for Log2 (fold) (luciferase activity, log2 of the fold difference relative to DMSO controls) / Fold (luciferase activity, fold difference relative to DMSO controls): screen of 480 ICCB compounds in vials, compounds fed to flies with one-day old Raf-1^gof tumors, esg-Gal4 luciferase
[1] = ICCB compounds fed in vials to flies with one-day old Raf-1^gof tumors, assessed three days later
[2] = ICCB compounds fed in vials to flies with one-day old Raf-1^gof tumors, assessed three days later, averaged from multiple wells
[3] = assessed three days later, averaged from multiple wells
Also: test concentration or dose not given here.

SMILES | Log2 (fold) of luciferase activity relative to DMSO controls [1] | Fold (luciferase activity relative to DMSO controls) [2] [fold] | Log2 (fold) (luciferase activity, log2 of the fold difference relative to DMSO controls) (assessed three days later) | Fold (luciferase activity, fold difference relative to DMSO controls) [3] | other results
CNc1ccc2oc(C[C@H]3O[C@@]4(CC[C@H]3C)O[C@H]([C@H](C)C(=O)c3ccc[nH]3)[C@H](C)C[C@H]4C)nc2c1C(=O)O [A-23187] | 0.176 | 1.130 |  |  | 
CC1=C(C)C(=O)C(CCCCC#CCCCC#CCO)=C(C)C1=O [AA-861] |  |  | −0.444 | 0.735 | 
CCN1C[C@]2(COC)[C@H](O)C[C@H](OC)[C@@]34[C@@H]5C[C@@]6(O)[C@H](OC(=O)c7ccccc7)[C@@H]5[C@@](OC(C)=O)([C@@H]([C@H](OC)[C@H]23)[C@@H]14)[C@@H](O)[C@@H]6OC [ACONITINE] |  |  | −0.278 | 0.825 | 
CCCCC/C=C\C/C=C\C/C=C\C/C=C\CCCCCC(=O)O [ADRENIC ACID (22:4, n-6)] |  |  | −0.364 | 0.777 | 
N#C/C(=C\c1ccc(O)c(O)c1)C(N)=S [AG213 (Tyrphostin 47)] |  |  | −0.625 | 0.648 | 
COc1cc2ncnc(Nc3cccc(Cl)c3)c2cc1OC [AG1478] |  |  | −0.655 | 0.635 | 
N#CC(=Cc1ccc2[nH]ccc2c1)C(N)=C(C#N)C#N [AG-370] |  |  | −0.559 | 0.679 | 
N#C/C(=C/c1ccc(O)c(O)c1)C(=O)NCc1ccccc1 [AG-490] |  |  | −0.272 | 0.828 | 
CC(C)(C)c1cc(/C=C(\C#N)C(N)=S)cc(C(C)(C)C)c1O [AG-879] | 0.902 | 1.869 |  |  | 
CC(=O)N[C@@H](CSC/C=C(\C)CCC=C(C)C)C(=O)O [AGC] |  |  | −0.508 | 0.703 | 
CC(=O)N[C@@H](CSC/C=C(\C)CC/C=C(\C)CC/C=C(\C)CCC=C(C)C)C(=O)O [AGGC] |  |  |  |  | Fold (luciferase activity relative to DMSO controls) (in vivo): 1.001 fold; Log2 (fold) of luciferase activity relative to DMSO controls (in vivo): 0.001
CN(CCc1ccc(Cl)c(Cl)c1)CC(O)COc1ccc(NS(C)(=O)=O)cc1 (centres unmarked) [AM 92016] |  |  | −0.341 | 0.789 | 
Cc1c(C(=O)NN2CCCCC2)nn(-c2ccc(Cl)cc2Cl)c1-c1ccc(I)cc1 [AM-251] | 0.065 | 1.046 |  |  | 
CC1(C)CCC(C)(C)c2cc(C(=O)Nc3ccc(C(=O)O)cc3)ccc21 [AM-580] |  |  | −0.311 | 0.806 | 
NC12CC3CC(CC(C3)C1)C2 [AMANTIDINE] |  |  | −0.252 | 0.840 | 
N=C(N)NC(=O)c1nc(Cl)c(N)nc1N [AMILORIDE] | −0.041 | 0.972 |  |  | 

SMILES | Log2 (fold) of luciferase activity relative to DMSO controls [1] | Fold (luciferase activity relative to DMSO controls) [2] [fold] | Log2 (fold) (luciferase activity, log2 of the fold difference relative to DMSO controls) (assessed three days later) | Fold (luciferase activity, fold difference relative to DMSO controls) [3] | other results
CCCCc1oc2ccccc2c1C(=O)c1cc(I)c(OCCN(CC)CC)c(I)c1 [AMIODARONE] | 0.102 | 1.074 |  |  | 
CCCCC/C=C\C/C=C\CCCCCCCC(=O)NCCO [ANANDAMIDE (18:2, n-6)] | −0.101 | 0.932 |  |  | 
CCCCC/C=C\C/C=C\C/C=C\CCCCCCC(=O)NCCO [ANANDAMIDE (20:3, n-6)] |  |  | −0.653 | 0.636 | 
CCCCC/C=C\C/C=C\C/C=C\C/C=C\CCCC(=O)NCCO [ANANDAMIDE (20:4, n-6)] | 0.054 | 1.038 |  |  | 
CCCCC/C=C\C/C=C\C/C=C\C/C=C\CCCCCC(=O)NCCO [ANANDAMIDE (22:4, n-6)] | 0.007 | 1.005 |  |  | 
CCCCC/C=C\C/C=C\C/C=C\C/C=C\CCCC(N)=O [ARACHIDONAMIDE] | −0.069 | 0.954 |  |  | 
CCCCC/C=C\C/C=C\C/C=C\C/C=C\CCCC(=O)O [ARACHIDONIC ACID (20:4, n-6)] | −0.045 | 0.969 |  |  | 
CCCCC/C=C\C/C=C\C/C=C\C/C=C\CCCC(=O)O[C@H](COCCCCCCCCCCCCCCCC)COP(=O)([O-])OCC[N+](C)(C)C [ARACHIDONOYL-PAF] |  |  | −0.439 | 0.738 | 
CCCC[C@@H](C=O)NC(=O)[C@H](CC(C)C)NC(=O)[C@H](CC(C)C)NC(C)=O [Ac-Leu-Leu-Nle-CHO] (Ac-Leu-Leu-[Nle]-aldehyde) |  |  | −0.431 | 0.742 | 
C[C@H](N)C(=O)N[C@@H](C)C(=O)N[C@@H](Cc1ccccc1)C(=O)CCl [Ala-Ala-Phe-CMK] (H-Ala-Ala-Phe-CH2Cl) |  |  | −0.738 | 0.599 | 
O=C(O)CN1C(=O)c2cccc3cccc(c23)C1=O [Alrestatin] |  |  | −0.320 | 0.801 | 
CCCCC/C=C\C/C=C\C/C=C\C/C=C\CCCC(=O)NCc1ccc(O)c(OC)c1 [Arvanil] |  |  | −0.482 | 0.716 | 
CC(C)(c1ccc(OCC2CO2)cc1)c1ccc(OCC2CO2)cc1 (centres unmarked) [BADGE] | 0.345 | 1.270 |  |  | 
CC(=O)OCOC(=O)CN(CC(=O)OCOC(C)=O)c1ccccc1OCCOc1ccccc1N(CC(=O)OCOC(C)=O)CC(=O)OCOC(C)=O [BAPTA-AM] |  |  | −0.242 | 0.846 | 
Cc1ccc(S(=O)(=O)/C=C/C#N)cc1 [BAY 11-7082] |  |  | −0.470 | 0.722 | 

Source: patent publication US20130096067A1, “DROSOPHILA TUMOR STEM CELL MODEL AND USES THEREOF” (priority 2011, published 2013)
